Patent US9133181B2, “Substituted 6-(4-hydroxy-phenyl)-1H-pyrazolo[3,4-b]pyridine derivatives as kinase inhibitors” (SANOFI, priority 2012, dated 2015)

These compounds were tested against T1, human full-length recombinant PKC βII (Homo sapiens, UniProt P05771) (assay: Determination of PKC βII inhibition (Caliper mobility shift kinase assay)). Settings: final compound concentration 1.14 μM (±0.15 μM); 60 min incubation at 32° C.
T1 construct: Active human full-length recombinant PKC βII; purchased Invitrogen GmbH, Darmstadt, Germany
T1 sequence (P05771 1-673 isoform P05771-2): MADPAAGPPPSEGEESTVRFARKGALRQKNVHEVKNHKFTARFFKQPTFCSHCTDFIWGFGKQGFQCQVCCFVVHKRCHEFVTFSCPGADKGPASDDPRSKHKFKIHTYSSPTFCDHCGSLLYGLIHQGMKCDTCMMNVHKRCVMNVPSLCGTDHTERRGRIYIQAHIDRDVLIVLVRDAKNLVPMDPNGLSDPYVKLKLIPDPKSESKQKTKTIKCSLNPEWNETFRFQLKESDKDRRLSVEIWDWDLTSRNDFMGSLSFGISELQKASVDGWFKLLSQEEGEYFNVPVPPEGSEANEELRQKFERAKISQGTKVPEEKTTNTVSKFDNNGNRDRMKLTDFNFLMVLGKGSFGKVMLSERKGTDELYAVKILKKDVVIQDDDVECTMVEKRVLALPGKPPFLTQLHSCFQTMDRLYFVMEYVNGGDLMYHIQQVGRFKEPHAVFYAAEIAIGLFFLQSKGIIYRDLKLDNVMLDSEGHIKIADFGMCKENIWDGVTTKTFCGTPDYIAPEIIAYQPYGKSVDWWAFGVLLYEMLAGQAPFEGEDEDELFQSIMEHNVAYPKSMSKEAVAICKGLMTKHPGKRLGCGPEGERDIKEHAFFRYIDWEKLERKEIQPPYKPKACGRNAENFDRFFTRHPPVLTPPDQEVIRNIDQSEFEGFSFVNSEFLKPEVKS
Assay type: biochemical
Experimental: Determination of PKC βII Inhibition
PKC βII inhibition was determined according to the following protocol:
Active human full-length recombinant PKC βII and the peptide substrate, Fluorescein-RFARKGSLRQKNV, were purchased from Invitrogen GmbH, Darmstadt, Germany. Adenosine-5′-triphosphate (ATP), bovine serum albumine (BSA), dimethylsulphoxide (DMSO), 4-(2-hydroxyethyl)piperazine-1-ethanesulfonic acid (Hepes), Triton X-100, 1,2-Dioleoyl-sn-glycerol (DAG), L-α-Phosphatidyl-L-serine (PS), calcium chloride (CaCl2), and Pluronic F-68 were purchased from Sigma-Aldrich, Munich, Germany. Magnesium chloride, 1 M sodium hydroxide solution, 1M hydrochloric acid solution and EDTA were obtained from Merck Biosciences, Darmstadt, Germany.
Test compounds were diluted to three times the test concentration in buffer 1 (30 mM Hepes-NaOH, pH 7.4, 0.01% Pluronic F-68 and 3% (v/v) DMSO). The […] enzyme was diluted to a concentration of 30 ng/ml in buffer 2 (30 mM Hepes-NaOH, pH 7.4, 15 mM MgCl2, 150 μM CaCl2, 150 μg/ml PS, 60 μg/ml DAG, and 0.045% (w/v) Triton X-100). The peptide substrate and ATP were diluted to concentrations of 3 μM and 120 μM, respectively, in buffer 2. Two μl of the compound solution were mixed with 2 μl of the diluted enzyme in a 384-well small volume microtiter plate (Greiner, Bio-One, Frickenhausen, Germany), and the kinase reaction was initiated by addition of 2 μl of the solution containing peptide substrate and ATP. After 60 min incubation at 32° C., the reaction was stopped by addition of 20 μl of a solution containing 130 mM Hepes-NaOH, pH 7.4, 0.0195% (v/v) Brij-35, 6.5 mM EDTA, 0.13% chip coating reagent 3 (Caliper Lifescience Inc, Hopkinton, Mass.) and 6.5% (v/v) DMSO. Phosphorylation of the substrate peptide was then detected on a Caliper 3000 instrument essentially as described by Pommereau et al (J. Biomol. Screening 2004, 9(5), 409-416). Separation conditions were as follows: Pressure −0.8 psi, upstream voltage −3000 V, downstream voltage −800 V. Positive controls (buffer 1 instead of compound) and negative controls (buffer 1 instead of compound and buffer 2 instead of kinase solution) were run in parallel on each plate. Fractional turnover (R) was determined as the height of the peak of the phosphorylated peptide product divided by the sum of the unphosphorylated substrate and phosphorylated product peak heights. Percent-inhibition values for the test compounds were determined using the formula % Inhibition=100*(1−(Rcompound−Rnegative control)/(Rpositive control−Rnegative control).
In the following table % inhibition values observed with example compounds at a final concentration of 1.14 μM (±0.15 μM) are listed: […]

**Q.** For `Cc1n[nH]c2nc(-c3ccc(O)cc3)cc(CN3CCNCC34CCCC4)c12` [Example 47, 4-[4-(6,9-Diaza-spiro[4.5]dec-6-ylmethyl)-3-methyl-1H-pyrazolo[3,4-b]pyridin-6-yl]-phenol], which inhibition at 1.14 µM is on record?
**A.** 101%

**Q.** With `Cc1n[nH]c2nc(-c3ccc(O)cc3F)cc(CN3CC(C)(C)N(CCO)CC3(C)C)c12` [Example 72, 3-Fluoro-4-{4-[4-(2-hydroxy-ethyl)-2,2,5,5-tetramethyl-piperazin-1-ylmethyl]-3-methyl-1H-pyrazolo[3,4-b]pyridin-6-yl}-phenol] as the compound, how does the inhibition at 1.14 µM read?
**A.** 100%

**Q.** How did the inhibition at 1.14 µM turn out when `CCC1(CC)CN(Cc2cc(-c3ccc(O)cc3F)nc3[nH]nc(C)c23)C(C)(C)CN1` [Example 22, 4-[4-(5,5-Diethyl-2,2-dimethyl-piperazin-1-ylmethyl)-3-methyl-1H-pyrazolo[3,4-b]pyridin-6-yl]-3-fluoro-phenol] was run?
**A.** 89%

**Q.** How did the inhibition at 1.14 µM turn out when `Cc1n[nH]c2nc(-c3ccc(O)cc3F)cc(CN3CC(C)(C)N(CC4CCOCC4)CC3(C)C)c12` [Example 70, 3-Fluoro-4-{3-methyl-4-[2,2,5,5-tetramethyl-4-(tetrahydro-pyran-4-ylmethyl)-piperazin-1-ylmethyl]-1H-pyrazolo[3,4-b]pyridin-6-yl}-phenol] was run?
**A.** 96%

**Q.** With `Cc1n[nH]c2nc(-c3ccc(O)cc3F)cc(CN3CCNC[C@H]3C(F)(F)F)c12` [Example 108, 3-Fluoro-4-[3-methyl-4-((S)-2-trifluoromethyl-piperazin-1-ylmethyl)-1H-pyrazolo[3,4-b]pyridin-6-yl]-phenol] as the compound, how does the inhibition at 1.14 µM read?
**A.** 102%

**Q.** With `Cc1n[nH]c2nc(-c3ccc(O)cc3)cc(CN3CCN[C@H](CC(F)(F)F)C3)c12` [Example 91, 4-{3-Methyl-4-[(R)-3-(2,2,2-trifluoro-ethyl)-piperazin-1-ylmethyl]-1H-pyrazolo[3,4-b]pyridin-6-yl}-phenol] as the compound, how does the inhibition at 1.14 µM read?
**A.** 81%

**Q.** Which inhibition at 1.14 µM does the source give for `Cc1n[nH]c2nc(-c3ccc(O)cc3F)cc(CN3C[C@](C)(C4CC4)NCC3(C)C)c12` [Example 150, 4-[4-((S)-5-Cyclopropyl-2,2,5-trimethyl-piperazin-1-ylmethyl)-3-methyl-1H-pyrazolo[3,4-b]pyridin-6-yl]-3-fluoro-phenol] here?
**A.** 100%

**Q.** With `Cc1n[nH]c2nc(-c3ccc(O)cc3F)cc(CN3CCNC[C@@H]3c3cccc(F)c3)c12` [Example 119, 3-Fluoro-4-{4-[(S)-2-(3-fluoro-phenyl)-piperazin-1-ylmethyl]-3-methyl-1H-pyrazolo[3,4-b]pyridin-6-yl}-phenol] as the compound, how does the inhibition at 1.14 µM read?
**A.** 86%

**Q.** Which inhibition at 1.14 µM does the source give for `CC[C@H]1CNC(C)(C)CN1Cc1cc(-c2ccc(O)cc2F)nc2[nH]nc(C)c12` [Example 143, 4-[4-((S)-2-Ethyl-5,5-dimethyl-piperazin-1-ylmethyl)-3-methyl-1H-pyrazolo[3,4-b]pyridin-6-yl]-3-fluoro-phenol] here?
**A.** 101%

**Q.** `CC[C@]1(C)CNC(C)(C)CN1Cc1cc(-c2ccc(O)cc2F)nc2[nH]nc(C)c12` [Example 121, 4-[4-((R)-2-Ethyl-2,5,5-trimethyl-piperazin-1-ylmethyl)-3-methyl-1H-pyrazolo[3,4-b]pyridin-6-yl]-3-fluoro-phenol] was tested. Which inhibition at 1.14 µM did it give?
**A.** 100%

**Q.** `Cc1n[nH]c2nc(-c3ccc(O)cc3F)cc(CN3CC(C)(C)N(C)CC3(C)C)c12` [Example 66, 3-Fluoro-4-[3-methyl-4-(2,2,4,5,5-penta-methyl-piperazin-1-ylmethyl)-1H-pyrazolo[3,4-b]-pyridin-6-yl]-phenol] was tested. Which inhibition at 1.14 µM did it give?
**A.** 100%

**Q.** Which inhibition at 1.14 µM does the source give for `Cc1n[nH]c2nc(-c3ccc(O)cc3F)cc(CN3CC(C)(C)NC[C@@H]3C(C)C)c12` [Example 133, 3-Fluoro-4-[4-((S)-2-isopropyl-5,5-dimethyl-piperazin-1-ylmethyl)-3-methyl-1H-pyrazolo[3,4-b]pyridin-6-yl]-phenol] here?
**A.** 103%

**Q.** With `Cc1n[nH]c2nc(-c3ccc(O)cc3F)cc(CN3CCNC[C@@H]3C(F)(F)F)c12` [Example 107, 3-Fluoro-4-[3-methyl-4-((R)-2-trifluoromethyl-piperazin-1-ylmethyl)-1H-pyrazolo[3,4-b]pyridin-6-yl]-phenol] as the compound, how does the inhibition at 1.14 µM read?
**A.** 101%

**Q.** For `Cc1n[nH]c2nc(-c3ccc(O)cc3F)cc(CN3CCNC[C@@H]3c3ccc(F)cc3)c12` [Example 105, 3-Fluoro-4-{4-[(S)-2-(4-fluoro-phenyl)-piperazin-1-ylmethyl]-3-methyl-1H-pyrazolo[3,4-b]pyridin-6-yl}-phenol], which inhibition at 1.14 µM is on record?
**A.** 100%

**Q.** For `Cc1n[nH]c2nc(-c3ccc(O)cc3)cc(CN3C[C@@H](C)NC[C@@H]3c3ccccc3)c12` (relative stereo) [Example 43, 4-[3-Methyl-4-(trans-5-methyl-2-phenyl-piperazin-1-ylmethyl)-1H-pyrazolo[3,4-b]pyridin-6-yl]-phenol], which “% Inhibition” value is on record?
**A.** 58%

**Q.** For `Cc1n[nH]c2nc(-c3ccc(O)cc3F)cc(CN3CC(C(C)C)NCC3(C)C)c12` (centres unmarked) [Example 20, 3-Fluoro-4-[4-(5-isopropyl-2,2-dimethyl-piperazin-1-ylmethyl)-3-methyl-1H-pyrazolo[3,4-b]pyridin-6-yl]-phenol], which inhibition at 1.14 µM is on record?
**A.** 98%

**Q.** Which inhibition at 1.14 µM does the source give for `Cc1n[nH]c2nc(-c3ccc(O)cc3)cc(CN3CCNC[C@@H]3c3ccc(C(F)(F)F)cc3)c12` [Example 113, 4-{3-Methyl-4-[(S)-2-(4-trifluoromethyl-phenyl)-piperazin-1-ylmethyl]-1H-pyrazolo[3,4-b]pyridin-6-yl}-phenol] here?
**A.** 81%

**Q.** Which inhibition at 1.14 µM does the source give for `Cc1n[nH]c2nc(-c3ccc(O)cc3F)cc(CN3CCNC[C@@]3(C)c3ccccc3)c12` [Example 118, 3-Fluoro-4-[3-methyl-4-((R)-2-methyl-2-phenyl-piperazin-1-ylmethyl)-1H-pyrazolo[3,4-b]pyridin-6-yl]-phenol] here?
**A.** 84%

**Q.** How did the inhibition at 1.14 µM turn out when `COCCC(=O)N1CC(C)(C)N(Cc2cc(-c3ccc(O)cc3F)nc3[nH]nc(C)c23)CC1(C)C` [Example 76, 1-{4-[6-(2-Fluoro-4-hydroxy-phenyl)-3-methyl-1H-pyrazolo[3,4-b]pyridin-4-ylmethyl]-2,2,5,5-tetramethyl-piperazin-1-yl}-3-methoxy-propan-1-one] was run?
**A.** 95%

**Q.** Which inhibition at 1.14 µM does the source give for `Cc1n[nH]c2nc(-c3ccc(O)cc3F)cc(CN3CC(C)NCC3(C)C)c12` (centres unmarked) [Example 11, 3-Fluoro-4-[3-methyl-4-(2,2,5-trimethyl-piperazin-1-ylmethyl)-1H-pyrazolo[3,4-b]pyridin-6-yl]-phenol] here?
**A.** 104%

**Q.** Which inhibition at 1.14 µM does the source give for `COC(=O)CNC(=O)N1CC(C)(C)N(Cc2cc(-c3ccc(O)cc3)nc3[nH]nc(C)c23)CC1(C)C` [Example 87, ({4-[6-(4-Hyd roxy-phenyl)-3-methyl-1H-pyrazolo[3,4-b]pyridin-4-ylmethyl]-2,2,5,5-tetramethyl-piperazine-1-carbonyl}-amino)-acetic acid methyl ester] here?
**A.** 92%

**Q.** With `Cc1n[nH]c2nc(-c3ccc(O)cc3F)cc(CN3CCNCC3c3ccccc3F)c12` (centres unmarked) [Example 10, 3-Fluoro-4-{4-[2-(2-fluoro-phenyl)-piperazin-1-ylmethyl]-3-methyl-1H-pyrazolo[3,4-b]pyridin-6-yl}-phenol] as the compound, how does the inhibition at 1.14 µM read?
**A.** 102%

**Q.** With `Cc1n[nH]c2nc(-c3ccc(O)cc3)cc(CN3CCNC[C@H]3CC(F)(F)F)c12` [Example 92, 4-{3-Methyl-4-[(R)-2-(2,2,2-trifluoro-ethyl)-piperazin-1-ylmethyl]-1H-pyrazolo[3,4-b]pyridin-6-yl}-phenol] as the compound, how does the inhibition at 1.14 µM read?
**A.** 99%

**Q.** How did the inhibition at 1.14 µM turn out when `Cc1n[nH]c2nc(-c3ccc(O)cc3)cc(CN3CC4(CCCC4)NCC3C)c12` (centres unmarked) [Example 33, 4-[3-Methyl-4-(8-methyl-6,9-diaza-spiro[4.5]dec-9-ylmethyl)-1H-pyrazolo[3,4-b]pyridin-6-yl]-phenol] was run?
**A.** 93%

**Q.** How did the inhibition at 1.14 µM turn out when `CCNC(=O)N1CCCN(Cc2cc(-c3ccc(O)cc3F)nc3[nH]nc(C)c23)CC1C` (centres unmarked) [Example 89, 4-[6-(2-Fluoro-4-hydroxy-phenyl)-3-methyl-1H-pyrazolo[3,4-b]pyridin-4-ylmethyl]-2-methyl-[1,4]diazepane-1-carboxylic acid ethylamide] was run?
**A.** 76%

**Q.** Which inhibition at 1.14 µM does the source give for `Cc1n[nH]c2nc(-c3ccc(O)cc3F)cc(CN3CC4(CCCC4)N(C)CC3(C)C)c12` [Example 71, 3-Fluoro-4-[3-methyl-4-(6,8,8-trimethyl-6,9-diaza-spiro[4.5]dec-9-ylmethyl)-1H-pyrazolo[3,4-b]pyridin-6-yl]-phenol] here?
**A.** 98%
